Laboratory results reported in patent US9988430B2, “Stable GLP-1 based GLP-1/glucagon receptor co-agonists” (Novo Nordisk A/S, priority 2014, dated 2018).
*1 amine or outer side, *2 acyl side, *3 side chain or, on linkers, in order; H or OH if unused. Where a SMILES comes first, the peptide text is derived from it. Bridges are numbered along the chain shown (N, C = ends). Roman numbers before positions name the chains, in order. Side-chain parts run from the residue outwards. [ ]: non-standard residue; d: D form. The star is where a group is joined. C18 diacid = O=C(O)CCCCCCCCCCCCCCCCC(=O)*; γGlu = O=C(O)[C@H](CCC(=O)[*:2])N[*:1]; Desaminohistidyl = O=C(CCc1c[nH]cn1)*; Ac4c = NC1(C(=O)O)CCC1; AEEA = NCCOCCOCC(=O)O; Aib = CC(C)(N)C(=O)O

What was measured:
human GLP-1 receptor = molecular target: T1, human GLP-1 receptor (Homo sapiens, UniProt P43220); assay: Assay (I)(a): GLP-1 receptor potency, CRE luciferase reporter gene assay in BHK cells; type: cell-based; details: BHK cells expressing human GLP-1 receptor, read-out: EC50 GLP-1R
T1 construct: expressed in transfected cells; host or cells: membranes of BHK cells, parent line BHKTS13, clone FCW467-12A
Summary of the method: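 BHK cells (clone FCW467-12A/KZ10-1), 5×10EE3/well, exposed 3 h at 37° C to compound at 1×10EE-13 to 1×10EE-6 M final in medium with 2% ovalbumin and 0.2% Pluronic F-68. Luciferase luminescence read; EC50 (pM) from four-parameter fit.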

[1] = Assay (V): chemical stability assessment by RP-UPLC; type: physicochemical; details: 14 days at 37° C. in phosphate buffer (pH 7.3)
Summary of the method: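 Lyophilized peptide dissolved in 8 mM phosphate pH 8.6, adjusted to pH 7.3, final 333 μM, held 14 days at 5° C and 37° C. Purity is main-peak area % by RP-UPLC with UV detection at 215 nm. Degradation is the 5° C minus 37° C purity difference divided by the 5° C purity.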

T1 sequence (P43220 24-463): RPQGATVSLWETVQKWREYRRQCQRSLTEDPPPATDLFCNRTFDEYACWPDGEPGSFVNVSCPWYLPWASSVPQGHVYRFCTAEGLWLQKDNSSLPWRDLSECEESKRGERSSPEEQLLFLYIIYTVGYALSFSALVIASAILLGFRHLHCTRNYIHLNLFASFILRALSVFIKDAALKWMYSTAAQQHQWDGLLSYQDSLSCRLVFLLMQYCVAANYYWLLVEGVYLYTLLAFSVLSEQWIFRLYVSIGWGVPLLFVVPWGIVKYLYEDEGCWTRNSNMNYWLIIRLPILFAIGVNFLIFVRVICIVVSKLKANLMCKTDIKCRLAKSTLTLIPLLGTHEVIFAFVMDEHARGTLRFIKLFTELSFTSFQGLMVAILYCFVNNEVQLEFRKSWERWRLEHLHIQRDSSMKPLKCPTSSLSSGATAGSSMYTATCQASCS

SMILES	EC50 (human GLP-1 receptor) [pM]	Chemical stability: Chemical degradation over 14 days at 37° C. [1] [%]
CC[C@H](C)[C@H](NC(=O)[C@H](Cc1ccccc1)NC(=O)[C@H](CCC(=O)O)NC(=O)[C@H](CCCNC(=N)N)NC(=O)[C@H](C)NC(=O)[C@H](C)NC(=O)[C@H](CCC(N)=O)NC(=O)[C@H](CCC(=O)O)NC(=O)[C@H](CCC(=O)O)NC(=O)[C@H](CC(C)C)NC(=O)[C@H](Cc1ccc(O)cc1)NC(=O)[C@H](CCCCN)NC(=O)[C@H](CO)NC(=O)[C@@H](NC(=O)[C@H](CC(=O)O)NC(=O)[C@H](CO)NC(=O)[C@@H](NC(=O)[C@H](Cc1ccccc1)NC(=O)[C@@H](NC(=O)CNC(=O)[C@H](Cc1c[nH]cn1)NC(=O)C1(NC(=O)CCc2c[nH]cn2)CCC1)[C@@H](C)O)[C@@H](C)O)C(C)C)C(=O)N[C@@H](C)C(=O)N[C@@H](Cc1c[nH]c2ccccc12)C(=O)N[C@@H](CC(C)C)C(=O)N[C@@H](CC(C)C)C(=O)N[C@@H](CCCCNC(=O)CNC(=O)[C@H](CO)NC(=O)[C@H](CCC(=O)O)NC(=O)CNC(=O)[C@H](CO)NC(=O)CC[C@H](NC(=O)CC[C@H](NC(=O)CCCCCCCCCCCCCCCCC(=O)O)C(=O)O)C(=O)O)C(=O)N[C@H](C(N)=O)[C@@H](C)O [Example 9, N^ε34-[2-[[(2S)-2-[[(2S)-4-carboxy-2-[[2-[[(2S)-2-[[(4S)-4-carboxy-4-[[(4S)-4-carboxy-4-(17-carboxyheptadecanoylamino)butanoyl]amino]butanoyl]amino]-3-hydroxypropanoyl]amino]acetyl]amino]butanoyl]amino]-3-hydroxypropanoyl]amino]acetyl]-[Imp7,Acb8,His9,Lys18,Glu22,Arg26,Leu33,Thr35]-GLP-1-(7-35)-peptide amide] (I: Desaminohistidyl-[Ac4c]HGTFTSDVSKYLEEQAAREFIAWLLKT-NH2 / II: {C18 diacid-γGlu-γGlu}-SGESG; amide I:27-II:C)	5	0.2
CC[C@H](C)[C@H](NC(=O)[C@H](Cc1ccccc1)NC(=O)[C@H](CCC(=O)O)NC(=O)[C@H](CCCNC(=N)N)NC(=O)[C@H](C)NC(=O)[C@H](C)NC(=O)[C@H](CCC(N)=O)NC(=O)[C@H](CCC(=O)O)NC(=O)[C@H](CCC(=O)O)NC(=O)[C@H](CC(C)C)NC(=O)[C@H](Cc1ccc(O)cc1)NC(=O)[C@H](CCCCN)NC(=O)[C@H](CO)NC(=O)[C@@H](NC(=O)[C@H](CC(=O)O)NC(=O)[C@H](CO)NC(=O)[C@@H](NC(=O)[C@H](Cc1ccccc1)NC(=O)[C@@H](NC(=O)CNC(=O)[C@H](Cc1c[nH]cn1)NC(=O)C(C)(C)NC(=O)CCc1c[nH]cn1)[C@@H](C)O)[C@@H](C)O)C(C)C)C(=O)N[C@@H](C)C(=O)N[C@@H](Cc1c[nH]c2ccccc12)C(=O)N[C@@H](CC(C)C)C(=O)N[C@@H](CC(C)C)C(=O)N[C@@H](CCCCNC(=O)COCCOCCNC(=O)COCCOCCNC(=O)CC[C@H](NC(=O)CCCCCCCCCCCCCCCCC(=O)O)C(=O)O)C(=O)N[C@H](C(N)=O)[C@@H](C)O [Example 12, N^ε34-[2-[2-[2-[[2-[2-[2-[[(4S)-4-carboxy-4-(17-carboxyheptadecanoylamino)butanoyl]amino]ethoxy]ethoxy]acetyl]amino]ethoxy]ethoxy]acetyl]-[Imp7,Aib8,His9,Lys18,Glu22,Arg26,Leu33,Thr35]-GLP-1-(7-35)-peptide amide] (Desaminohistidyl-[Aib]HGTFTSDVSKYLEEQAAREFIAWLLK([AEEA-AEEA-γGlu-C18 diacid])T-NH2)	6	4.4
